From patent US9579314B2 (priority 2015, dated 2017)
pIC50: −log10 of the molar value.

Tests used:
Human M3 receptor = Human M3 receptor (Homo sapiens, UniProt P20309); conditions: read-out: M3 binding affinity
Human β2 adrenoceptor = Human β2 adrenoceptor (Homo sapiens, UniProt P07550); conditions: read-out: B2 binding affinity
Human β2 adrenoceptor, sequence (P07550 whole entry): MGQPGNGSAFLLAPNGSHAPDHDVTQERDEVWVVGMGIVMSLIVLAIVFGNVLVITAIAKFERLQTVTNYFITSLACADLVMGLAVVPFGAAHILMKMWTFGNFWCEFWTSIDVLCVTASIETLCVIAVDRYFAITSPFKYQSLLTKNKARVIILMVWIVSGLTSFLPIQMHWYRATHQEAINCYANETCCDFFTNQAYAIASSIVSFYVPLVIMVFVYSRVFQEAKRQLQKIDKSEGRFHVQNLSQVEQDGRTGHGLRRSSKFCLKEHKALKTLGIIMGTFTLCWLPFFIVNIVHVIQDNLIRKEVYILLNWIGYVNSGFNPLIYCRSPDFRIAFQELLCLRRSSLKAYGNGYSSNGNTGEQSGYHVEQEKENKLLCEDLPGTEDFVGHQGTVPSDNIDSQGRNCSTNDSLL

Human M3 receptor, sequence (P20309 whole entry): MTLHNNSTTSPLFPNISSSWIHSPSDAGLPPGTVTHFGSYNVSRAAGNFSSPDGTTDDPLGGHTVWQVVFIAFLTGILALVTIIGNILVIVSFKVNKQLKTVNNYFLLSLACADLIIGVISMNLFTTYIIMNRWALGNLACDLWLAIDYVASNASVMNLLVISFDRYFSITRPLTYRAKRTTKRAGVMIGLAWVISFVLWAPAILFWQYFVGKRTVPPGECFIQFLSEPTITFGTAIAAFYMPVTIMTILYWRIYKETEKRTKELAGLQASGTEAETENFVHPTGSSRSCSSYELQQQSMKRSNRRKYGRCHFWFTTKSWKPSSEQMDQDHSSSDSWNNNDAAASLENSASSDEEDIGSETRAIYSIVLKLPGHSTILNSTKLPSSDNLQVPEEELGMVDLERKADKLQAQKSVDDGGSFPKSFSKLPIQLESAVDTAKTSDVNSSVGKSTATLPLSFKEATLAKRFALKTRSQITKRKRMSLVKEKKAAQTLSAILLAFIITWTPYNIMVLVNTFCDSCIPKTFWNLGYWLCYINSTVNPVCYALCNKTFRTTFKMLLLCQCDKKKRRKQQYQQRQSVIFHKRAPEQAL

Compound | pIC50 (Human M3 receptor) | pIC50 (Human β2 adrenoceptor)
CN(CCNC(=O)c1ccc(CNC[C@H](O)c2ccc(O)c3[nH]c(=O)ccc23)cc1)C(=O)COc1cccc([C@](O)(C(=O)OCC2CCN(Cc3ccccc3)CC2)c2ccccc2)c1 [Compound 60, (1-benzylpiperidin-4-yl)methyl (S)-2-hydroxy-2-(3-(2-((2-(4-((((R)-2-hydroxy-2-(8-hydroxy-2-oxo-1,2-dihydroquinolin-5-yl)ethyl)amino)methyl)benzamido)ethyl)(methyl)amino)-2-oxoethoxy)phenyl)-2-phenylacetate] | 8.52 to 9.52 | 8.52 to 9.52
O=C(NCC1CCN(C(=O)COc2cccc([C@](O)(C(=O)OCC3CCN(Cc4ccccc4)CC3)c3ccccc3)c2)CC1)c1ccc(CNC[C@H](O)c2ccc(O)c3[nH]c(=O)ccc23)cc1 [Compound 61, (1-benzylpiperidin-4-yl)methyl (S)-2-hydroxy-2-(3-(2-(4-((4-((((R)-2-hydroxy-2-(8-hydroxy-2-oxo-1,2-dihydroquinolin-5-yl)ethyl)amino)methyl)benzamido)methyl)piperidin-1-yl)-2-oxoethoxy)phenyl)-2-phenylacetate] | 8.52 to 9.52 | > 9.52
O=C(COc1cccc([C@](O)(C(=O)OCC2CCN(Cc3ccccc3)CC2)c2ccccc2)c1)N[C@H]1CC[C@H](NC(=O)c2ccc(CNC[C@H](O)c3ccc(O)c4[nH]c(=O)ccc34)cc2)CC1 [Compound 62, (1-benzylpiperidin-4-yl)methyl (S)-2-hydroxy-2-(3-(2-(((1R,4S)-4-(4-((((R)-2-hydroxy-2-(8-hydroxy-2-oxo-1,2-dihydroquinolin-5-yl)ethyl)amino)methyl)benzamido)cyclohexyl)amino)-2-oxoethoxy)phenyl)-2-phenylacetate] | > 9.52 | > 9.52
O=C(COc1cccc([C@](O)(C(=O)OCC2CCN(Cc3ccccc3)CC2)c2ccccc2)c1)N[C@H]1C[C@H](NC(=O)c2ccc(CNC[C@H](O)c3ccc(O)c4[nH]c(=O)ccc34)cc2)C1 [Compound 63, (1-benzylpiperidin-4-yl)methyl (S)-2-hydroxy-2-(3-(2-(((1R,3S)-3-(4-((((R)-2-hydroxy-2-(8-hydroxy-2-oxo-1,2-dihydroquinolin-5-yl)ethyl)amino)methyl)benzamido)cyclobutyl)amino)-2-oxoethoxy)phenyl)-2-phenylacetate] | > 9.52 | > 9.52
O=C(COc1cccc([C@](O)(C(=O)OCC2CCN(Cc3ccccc3)CC2)c2ccccc2)c1)N1CCC2(CC1)CCN(C(=O)c1ccc(CNC[C@H](O)c3ccc(O)c4[nH]c(=O)ccc34)cc1)CC2 [Compound 64, (1-benzylpiperidin-4-yl)methyl (S)-2-hydroxy-2-(3-(2-(9-(4-((((R)-2-hydroxy-2-(8-hydroxy-2-oxo-1,2-dihydroquinolin-5-yl)ethyl)amino)methyl)benzoyl)-3,9-diazaspiro[5.5]undecan-3-yl)-2-oxoethoxy)phenyl)-2-phenylacetate] | > 9.52 | 8.52 to 9.52
O=C(COc1cccc([C@](O)(C(=O)OCC2CCN(Cc3ccccc3)CC2)c2ccccc2)c1)NC1CCN(C(=O)c2ccc(CNC[C@H](O)c3ccc(O)c4[nH]c(=O)ccc34)cc2)CC1 [Compound 65, (1-benzylpiperidin-4-yl)methyl (S)-2-hydroxy-2-(3-(2-((1-(4-((((R)-2-hydroxy-2-(8-hydroxy-2-oxo-1,2-dihydroquinolin-5-yl)ethyl)amino)methyl)benzoyl)piperidin-4-yl)amino)-2-oxoethoxy)phenyl)-2-phenylacetate] | > 9.52 | 8.52 to 9.52
O=C(COc1cccc([C@](O)(C(=O)OCC2CCN(Cc3ccccc3)CC2)c2ccccc2)c1)NC1CN(C(=O)c2ccc(CNC[C@H](O)c3ccc(O)c4[nH]c(=O)ccc34)cc2)C1 [Compound 66, (1-benzylpiperidin-4-yl)methyl (S)-2-hydroxy-2-(3-(2-((1-(4-((((R)-2-hydroxy-2-(8-hydroxy-2-oxo-1,2-dihydroquinolin-5-yl)ethyl)amino)methyl)benzoyl)azetidin-3-yl)amino)-2-oxoethoxy)phenyl)-2-phenylacetate] | 8.52 to 9.52 | > 9.52
O=C(NC1CN(C(=O)COc2cccc([C@](O)(C(=O)OCC3CCN(Cc4ccccc4)CC3)c3ccccc3)c2)C1)c1ccc(CNC[C@H](O)c2ccc(O)c3[nH]c(=O)ccc23)cc1 [Compound 67, (1-benzylpiperidin-4-yl)methyl (S)-2-hydroxy-2-(3-(2-(3-(4-((((R)-2-hydroxy-2-(8-hydroxy-2-oxo-1,2-dihydroquinolin-5-yl)ethyl)amino)methyl)benzamido)azetidin-1-yl)-2-oxoethoxy)phenyl)-2-phenylacetate] | > 9.52 | > 9.52
O=C(COc1cccc([C@](O)(C(=O)OCC2CCN(Cc3ccccc3)CC2)c2ccccc2)c1)N[C@@H]1CCN(C(=O)c2ccc(CNC[C@H](O)c3ccc(O)c4[nH]c(=O)ccc34)cc2)C1 [Compound 68, (1-benzylpiperidin-4-yl)methyl (S)-2-hydroxy-2-(3-(2-(((R)-1-(4-((((R)-2-hydroxy-2-(8-hydroxy-2-oxo-1,2-dihydroquinolin-5-yl)ethyl)amino)methyl)benzoyl)pyrrolidin-3-yl)amino)-2-oxoethoxy)phenyl)-2-phenylacetate] | 8.52 to 9.52 | 8.52 to 9.52
O=C(COc1cccc([C@](O)(C(=O)OCC2CCN(Cc3ccccc3)CC2)c2ccccc2)c1)N[C@H]1CCCN(C(=O)c2ccc(CNC[C@H](O)c3ccc(O)c4[nH]c(=O)ccc34)cc2)C1 [Compound 69, (1-benzylpiperidin-4-yl)methyl (S)-2-hydroxy-2-(3-(2-(((S)-1-(4-((((R)-2-hydroxy-2-(8-hydroxy-2-oxo-1,2-dihydroquinolin-5-yl)ethyl)amino)methyl)benzoyl)piperidin-3-yl)amino)-2-oxoethoxy)phenyl)-2-phenylacetate] | 8.52 to 9.52 | 8.52 to 9.52
O=C(COc1cccc([C@](O)(C(=O)OCC2CCN(Cc3ccccc3)CC2)c2ccccc2)c1)N[C@H]1CCN(C(=O)c2ccc(CNC[C@H](O)c3ccc(O)c4[nH]c(=O)ccc34)cc2)C1 [Compound 70, (1-benzylpiperidin-4-yl)methyl (S)-2-hydroxy-2-(3-(2-(((S)-1-(4-((((R)-2-hydroxy-2-(8-hydroxy-2-oxo-1,2-dihydroquinolin-5-yl)ethyl)amino)methyl)benzoyl)pyrrolidin-3-yl)amino)-2-oxoethoxy)phenyl)-2-phenylacetate] | 8.52 to 9.52 | 8.52 to 9.52
O=C(COc1cccc([C@](O)(C(=O)OCC2CCN(Cc3ccccc3)CC2)c2ccccc2)c1)N[C@@H]1CCCN(C(=O)c2ccc(CNC[C@H](O)c3ccc(O)c4[nH]c(=O)ccc34)cc2)C1 [Compound 71, (1-benzylpiperidin-4-yl)methyl (S)-2-hydroxy-2-(3-(2-(((R)-1-(4-((((R)-2-hydroxy-2-(8-hydroxy-2-oxo-1,2-dihydroquinolin-5-yl)ethyl)amino)methyl)benzoyl)piperidin-3-yl)amino)-2-oxoethoxy)phenyl)-2-phenylacetate] | 8.52 to 9.52 | < 8.52
O=C(N[C@H]1CCCN(C(=O)COc2cccc([C@](O)(C(=O)OCC3CCN(Cc4ccccc4)CC3)c3ccccc3)c2)C1)c1ccc(CNC[C@H](O)c2ccc(O)c3[nH]c(=O)ccc23)cc1 [Compound 72, (1-benzylpiperidin-4-yl)methyl (S)-2-hydroxy-2-(3-(2-((S)-3-(4-((((R)-2-hydroxy-2-(8-hydroxy-2-oxo-1,2-dihydroquinolin-5-yl)ethyl)amino)methyl)benzamido)piperidin-1-yl)-2-oxoethoxy)phenyl)-2-phenylacetate] | 8.52 to 9.52 | < 8.52
O=C(N[C@H]1CCN(C(=O)COc2cccc([C@](O)(C(=O)OCC3CCN(Cc4ccccc4)CC3)c3ccccc3)c2)C1)c1ccc(CNC[C@H](O)c2ccc(O)c3[nH]c(=O)ccc23)cc1 [Compound 73, (1-benzylpiperidin-4-yl)methyl (S)-2-hydroxy-2-(3-(2-((S)-3-(4-((((R)-2-hydroxy-2-(8-hydroxy-2-oxo-1,2-dihydroquinolin-5-yl)ethyl)amino)methyl)benzamido)pyrrolidin-1-yl)-2-oxoethoxy)phenyl)-2-phenylacetate] | 8.52 to 9.52 | > 9.52
O=C(c1ccc(CNC[C@H](O)c2ccc(O)c3[nH]c(=O)ccc23)cc1)N1C[C@H]2CCN(C(=O)COc3cccc([C@](O)(C(=O)OCC4CCN(Cc5ccccc5)CC4)c4ccccc4)c3)[C@H]2C1 [Compound 74, (1-benzylpiperidin-4-yl)methyl (S)-2-hydroxy-2-(3-(2-((3aR,6aR)-5-(4-((((R)-2-hydroxy-2-(8-hydroxy-2-oxo-1,2-dihydroquinolin-5-yl)ethyl)amino)methyl)benzoyl)hexahydropyrrolo[3,4-b]pyrrol-1(2H)-yl)-2-oxoethoxy)phenyl)-2-phenylacetate] | 8.52 to 9.52 | 8.52 to 9.52
O=C(N[C@@H]1CCCN(C(=O)COc2cccc([C@](O)(C(=O)OCC3CCN(Cc4ccccc4)CC3)c3ccccc3)c2)C1)c1ccc(CNC[C@H](O)c2ccc(O)c3[nH]c(=O)ccc23)cc1 [Compound 75, (1-benzylpiperidin-4-yl)methyl (S)-2-hydroxy-2-(3-(2-((R)-3-(4-((((R)-2-hydroxy-2-(8-hydroxy-2-oxo-1,2-dihydroquinolin-5-yl)ethyl)amino)methyl)benzamido)piperidin-1-yl)-2-oxoethoxy)phenyl)-2-phenylacetate] | 8.52 to 9.52 | < 8.52
O=C(N[C@@H]1CCN(C(=O)COc2cccc([C@](O)(C(=O)OCC3CCN(Cc4ccccc4)CC3)c3ccccc3)c2)C1)c1ccc(CNC[C@H](O)c2ccc(O)c3[nH]c(=O)ccc23)cc1 [Compound 76, (1-benzylpiperidin-4-yl)methyl (S)-2-hydroxy-2-(3-(2-((R)-3-(4-((((R)-2-hydroxy-2-(8-hydroxy-2-oxo-1,2-dihydroquinolin-5-yl)ethyl)amino)methyl)benzamido)pyrrolidin-1-yl)-2-oxoethoxy)phenyl)-2-phenylacetate] | 8.52 to 9.52 | 8.52 to 9.52
